Reference: PMC4655241, “The Structure of a Novel Thermophilic Esterase from the Planctomycetes Species, Thermogutta terrifontis Reveals an Open Active Site Due to a Minimal ‘Cap’ Domain” (Frontiers in Microbiology, 2015)

Columns and labels:
[1] = target: T1, TtEst2 (Thermogutta terrifontis, UniProt A0A0X1KHD1); test: X-ray crystal structure, soak; type: binding; conditions: carboxyl pocket of active site
T1 construct: mature form, predicted signal peptide removed; pLATE52 N-terminal His6 tag with WELQ protease site (cleavage not mentioned); E. coli BL21 (DE3); monomer; residues 1-283 modelled

[2] = target: T1, TtEst2; test: pNP release, A410; type: biochemical; conditions: 1 mM substrate, 20 mM HEPES, 100 mM NaCl, pH 7.5, 25 C

T1 sequence (A0A0X1KHD1 entry or part of it): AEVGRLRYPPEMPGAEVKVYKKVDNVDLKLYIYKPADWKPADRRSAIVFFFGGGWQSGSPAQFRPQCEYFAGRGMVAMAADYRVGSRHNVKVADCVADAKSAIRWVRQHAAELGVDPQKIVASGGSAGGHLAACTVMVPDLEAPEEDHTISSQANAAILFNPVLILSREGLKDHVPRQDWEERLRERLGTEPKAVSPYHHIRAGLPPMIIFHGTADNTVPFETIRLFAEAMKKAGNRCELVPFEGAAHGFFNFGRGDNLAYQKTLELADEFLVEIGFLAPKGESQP

SMILES: CCCC(=O)O [butyrate]
- X-ray crystal structure, soak ([1]; pH 4.5, 25 mM soak, oxyanion hole, 1.79 A): 5AOB (butyrate bound)

SMILES: CC(=O)Oc1ccc([N+](=O)[O-])cc1 [pNP-acetate]
- pNP release, A410 [2]: The enzyme was most active toward pNP-acetate

SMILES: CCC(=O)O [propionate]
- X-ray crystal structure, soak ([1]; pH 4.5, 25 mM soak, oxyanion hole, 1.71 A): 5AOA (propionate bound)

SMILES: CCCCC(=O)O [valerate]
- X-ray crystal structure, soak ([1]; pH 4.5, soaked as 25 mM pNP-valerate, only valerate part seen, 1.79 A): 5AOC (valerate bound)
